The source of these data is article PMC7249060, “The Antiproliferative Effects of Flavonoid MAO Inhibitors on Prostate Cancer Cells” (Molecules, 2020).

One data set has as its target T1, hMAO-A (Homo sapiens, UniProt P21397).
T1 construct: purchased Sigma-Aldrich Co. (St. Louis, MO, USA)
T1 sequence (P21397 1-527): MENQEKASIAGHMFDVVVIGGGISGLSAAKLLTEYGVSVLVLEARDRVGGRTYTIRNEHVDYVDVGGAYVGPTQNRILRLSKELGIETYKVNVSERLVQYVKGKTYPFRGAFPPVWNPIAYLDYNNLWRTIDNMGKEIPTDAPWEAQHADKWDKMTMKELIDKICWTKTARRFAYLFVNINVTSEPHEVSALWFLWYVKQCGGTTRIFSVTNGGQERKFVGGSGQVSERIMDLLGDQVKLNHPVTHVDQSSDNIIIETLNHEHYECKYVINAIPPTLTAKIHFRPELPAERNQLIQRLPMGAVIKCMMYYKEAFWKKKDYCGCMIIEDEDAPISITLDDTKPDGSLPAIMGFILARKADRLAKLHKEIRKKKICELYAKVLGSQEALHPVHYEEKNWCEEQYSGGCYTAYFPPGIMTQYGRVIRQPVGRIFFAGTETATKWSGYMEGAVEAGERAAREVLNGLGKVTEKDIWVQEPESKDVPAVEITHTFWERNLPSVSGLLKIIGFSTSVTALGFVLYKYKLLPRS
As to the kind of experiment: MAO-Glow inhibitory potency (IC50) and relative selectivity. The format is biochemical. The conditions noted are these: mean ± SEM, at least two experiments; LDS 40 μM. The procedure: (§1) The inhibitory effects of the synthesized KKRs of hMAO-A and B were tested by measuring the decrease in arbitrary light units (ALU) signal produced by the optimized isozymes using the MAO-Glow™ Assay at 37 °C. In this assay, DMSO stock for each KKR compound was diluted with a reaction buffer of pH 7.4 to make a 4X working solution for a maximum final concentration of 100 μM and ≤1% DMSO. The experiments were run in the absence and presence of 4X the miscellaneous standards of MAO-BIs (DEP, PARG, and SAF) and MAO-AIs (PIRL and CLORG), with similar concentrations. In white opaque 96-well microplates, 12.5 μL of each compound was plated at RT and was followed by 25 μL of 2X cold hMAO-A or hMAO-B, for a final concentration of 0.44 U/mL. A related buffer substituted each isozyme to make the blank wells and substituted each compound to make the negative control wells. Following this, we added 12.5 μL of 4X LDS to make a final substrate concentration of 40- and 4-μM for hMAO-A and hMAO-B, respectively. All screen plates were incubated at 37 °C for 60 min. The plates of 50 μL/well were then taken out from the incubator, and their reactions were stopped by an equal volume of 50 μL of reporter luciferin detection reagent (RLDR). After 30 min, the luminescence signals for all plates were read on a Synergy HTX Multi-reader from Bio-Tek (Winooski, VT, USA).
(§2) The experiments were performed in the presence and absence of the standard PILR. In white opaque 96-well plates, each KKR compound was serially diluted with a reaction buffer of pH 7.4 at the highest possible maximum final concentration, and the least used DMSO (<2%). In blank wells, the related reaction buffer substituted the isozyme. In negative control wells, the reaction buffer substituted each compound concentration. Then, the procedure was carried out as mentioned above (Section 4.2.2), and the reaction was detected on the Bio-Tek Synergy HTX Multi-Reader. The IC50 of each KKR on both isozymes was determined and subsequently the RSA and RSB was calculated.
(§3) Statistical analyses were performed using the GraphPad Prism program (version 6.07 for Windows) from the GraphPad Prism Software Incorporated (San Diego, CA, USA). All data points and parameters were expressed as the mean ± SEM. All parameters were calculated from non-linear and linear regressions with the best R^2 values, no less than 93%. The inhibitory concentration of 50% of isozyme (IC50) of each compound was obtained by the interpolation of a normalized variable slope logarithmic curve. The RSA values of the selected compounds were calculated from their IC50 average means following the equation RSA = hMAO − B IC50/Hmao − A IC50(1)

The next data set has as its target T2, hMAO-B (Homo sapiens, UniProt P27338).
T2 construct: purchased Sigma-Aldrich Co. (St. Louis, MO, USA)
T2 sequence (P27338 1-520): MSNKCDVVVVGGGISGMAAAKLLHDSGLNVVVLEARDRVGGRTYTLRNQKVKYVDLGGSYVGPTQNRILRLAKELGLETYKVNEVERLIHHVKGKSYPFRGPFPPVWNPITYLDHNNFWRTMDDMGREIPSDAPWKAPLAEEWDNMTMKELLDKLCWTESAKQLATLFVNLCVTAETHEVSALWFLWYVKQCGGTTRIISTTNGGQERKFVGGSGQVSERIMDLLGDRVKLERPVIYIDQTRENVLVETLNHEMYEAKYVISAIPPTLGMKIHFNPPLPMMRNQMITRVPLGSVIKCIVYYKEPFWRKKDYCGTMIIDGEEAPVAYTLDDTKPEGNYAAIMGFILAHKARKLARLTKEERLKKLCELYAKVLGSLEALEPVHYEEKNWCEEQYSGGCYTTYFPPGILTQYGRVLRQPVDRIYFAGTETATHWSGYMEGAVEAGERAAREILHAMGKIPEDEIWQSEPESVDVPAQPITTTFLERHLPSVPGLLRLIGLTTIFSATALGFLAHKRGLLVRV
As to the kind of experiment: MAO-Glow inhibitory potency (IC50). Format: biochemical. The conditions noted are these: mean ± SEM, at least two experiments; LDS 4 μM. As to the method:
as §1, §2, §3

The test system of data set [1] is LNCaP cells. As to the kind of experiment: Antiproliferation dose-response assay for 72 h. Format: cell-based. As to conditions: Homo sapiens, mean ± SEM of two experiments, read-out: antiproliferative IC50. The procedure: For the top effective KKRs, along with TAX, their potency to reduce the affected PCa cell line growth in a dose-dependent manner was determined using the resazurin fluorescence assay. We followed the same protocols and materials used for the antiproliferation screen assays (Section 4.3.2), with the following modifications. The maximum final KKR concentration used was 40 μM. The concentration of 8X of each KKR working solution in 1% HEPES 7.4 was serially diluted in a 3:1 ratio, compound to buffer, respectively. Each data set was collected from ten data points of 3.7–40 μM range. The control had the KKR substituted with buffer. The related IC50 averages were analyzed for the compounds that affected the cell lines the most.

The subject of data set [2] is LNCaP cells. As to the kind of experiment: cells. The format is cell-based, human. As to the method: The morphological alterations of the LNCaP cells were imaged, and their percentage proliferation rate was measured after five-days of incubation. The method of subculture and treatment were similar to our antiproliferation assay, with slight modifications. Briefly, the cells were seeded in transparent flat-bottom 96-well microplates with 10,000 cells/175 μL/well of […] experimental media. Following overnight incubation, 20 μM concentration level (~2 × IC50) for each of KKR11, 20, 7, 2A, 21, and the standard PIRL were added to the cells for a total volume of 200 μL/well and re-incubated for five-days. On the day of imaging, 20X phase-contrast images of lid-covered treated and control cells were captured using an inverted microscope. Resazurin was then added for viability detection, and the imaged cells in the wells were read after 4.5 h on the Bio-Tek Synergy HTX Multi-reader.

Data set [3] relates to LNCaP cells. As to the kind of experiment: Antiproliferation screen assay, resazurin, 72 h. The format is cell-based, human.
Data set [4] deals with LNCaP cells. As to the kind of experiment: Antiproliferation screen assay, resazurin, 72 h. The format is cell-based, human. The conditions noted are these: 50 μM. As to the method:
In this screen, we examined the growth inhibitory effects of all synthesized KKRs on the three human PCa cell lines LNCaP, DU145, and PC3. The antiproliferative clinical drug TAX of 0.25 μM was used as a positive control. Additionally, different standards of MAO-Is and FLUT were tested for their effect on the LNCaP cells. Briefly, the procedures and materials used were the same as for the viability assay except for the following—cultured cells were seeded at 10,000 cells/175-µL/well related experimental media, and the resazurin solution was added after 72 h of incubation with the compounds of 50 μM each.

Data set [5] concerns LNCaP cells. As to the kind of experiment: Viability screen assay, resazurin, 24 h. As to conditions: 50 μM, 90% viability as margin of cytotoxicity. Format: cell-based, human. The procedure: We examined the cytotoxic effects of all 20 synthesized KKRs on the three human PCa cell lines LNCaP, DU145, and PC3, after a 24 h exposure period. Non-toxic TAX was used for comparison. Briefly, cultured cells were seeded in black transparent bottom 96-well microplates at 50,000 cells/175-µL/well in experimental media (RPMI1640 for LNCaP, EMEM for DU145, and DMEM/F12K for PC3), supplied with 5% FBS and 1% P/S. Wells of media without cells were considered blanks and negative controls. The plates were incubated overnight at 37 °C in 5% CO2 to allow cell attachment. For each compound, a working solution of 8X KKR in sterile […] HEPES in HBSS pH buffer of 7.4 was prepared for a final concentration of 50 μM each. The three attached cell types were treated immediately with the related buffer being added to the control wells. A sterile fluorescence-based solution of the resazurin reagent of 0.5 mg/mL in HBSS was prepared. After 24 h, the cells were exposed to 15% v/v of the sterile resazurin reagent, and the plates were re-incubated for 4.5 h to allow redox reaction. All plates were read under 530/590-nm excitation/emission wavelengths using Bio-Tek Synergy HTX Multi-reader as a microplate fluorescence reader.

In another data set the test system is DU145 cells. As to the kind of experiment: Scratch migration assay. The format is cell-based, human. The conditions noted are these: preliminary data. The procedure:
For in-vitro migration experiments, the PCa metastatic DU145 cell line was used. Cell proliferation and cytotoxicity were monitored for assay validation. The cells (passage # ≤ 10) were grown in fresh media of EMEM 10% FBS, 1% P/S. The cells were seeded in flat-bottom transparent 96-well microplates (100,000 cells/100 μL/well) in EMEM 5% FBS, 1% P/S experimental media. The next day, the confluent cells monolayer was artificially injured by scratching a line across each well, using a 200 μL tip. Immediately, the old media with the detached cells were replaced with 175 μL fresh warm experimental media. Intact cells were then treated with 25 μL of HBSS buffer 7.4 containing tested KKR. In addition to the negative control, KKR11 was tested at gradual concentrations to make finals of 40, 30, 23, 17, and 13 μM. The cells were then incubated for an additional 72 h for gap closure of the control wells.
At the gap closure time point, all cells were subjected to the crystal violet assay that only stains viable cells. Briefly, all media were carefully aspired from cells that were then washed with Ca- and Mg-free PBS. The cells were then fixed with 100 μL 0.25% v/v glutaraldehyde, at 37 °C for 20–30 min incubation time, and dried overnight. The next day, all viable attached cells were stained with a 100 μL crystal violet solution (0.1% in DI-water) for up to 30 min. The solution was then discarded, and the stained cells were kept dry for imaging. Images of the scratched areas were photographed using 10X phase contrast objective lenses of Motic-MXH-100-AE31E-Elite Inverted Microscope.

For the compound `Cc1ccc2c(c1)c1c3n2CCNC3CCC1` (stereo not drawn) [PIRL, pirlindole, reference compound], the IC50 at hMAO-A was 12 ± 2 nM; on hMAO-B, over 800000 nM; in the data set on LNCaP cells [1] it was over 40000 nM. In addition, in the data set on LNCaP cells [2] (20 μM, five days, phase contrast), the “effect on LNCaP proliferation and cell morphology” value is “neither significant effects on LNCaP proliferation nor apparent changes in cell morphology”. Moreover, the viability at 20 µM with LNCaP cells [2] (Homo sapiens, LNCaP, 120 h, read-out: percentage of treated group compared to the viable control) was 90%. Also, in the data set on LNCaP cells [3] (10 μM), the “antiproliferative effect of clinical standards” value is recorded as “none of the standards showed a significant antiproliferative effect”.
Turning to `C#CCN(C)[C@H](C)Cc1ccccc1.Cl` [DEP, (R)-(−)-deprenyl HCl], the “antiproliferative effect of clinical standards” value in the data set with LNCaP cells [3] (10 μM) is given as “none of the standards showed a significant antiproliferative effect”.
`O=C(/C=C/c1ccc2c(c1)OCO2)c1cc(Cl)cc(Cl)c1O` [KKR18, (E)-3-(benzo[d][1,3]dioxol-5-yl)-1-(3,5-dichloro-2-hydroxyphenyl)prop-2-en-1-one]: in the data set on LNCaP cells [4], the “antiproliferative effect in screen” value was “top five KKRs that kept standing out with antiproliferative effects”.
For the compound `O=C(/C=C/c1ccccc1)c1cc(Cl)c(Cl)cc1O` [KKR23, (E)-1-(4,5-dichloro-2-hydroxyphenyl)-3-phenylprop-2-en-1-one], the “antiproliferative effect in screen” value in the data set with LNCaP cells [4] is “top five KKRs that kept standing out with antiproliferative effects”.
For `COc1cc(-c2cc(=O)c3ccccc3o2)cc(OC)c1OC` [KKR22, 2-(3,4,5-trimethoxyphenyl)-4H-chromen-4-one], in the data set with LNCaP cells [5], the “cytotoxicity / cell viability” value was “affected the LNCaP cells”.
With `COc1cc(OC)c2c(=O)c(O)c(/C=C/c3ccccc3)oc2c1` [KKR16, (E)-3-hydroxy-5,7-dimethoxy-2-styryl-4H-chromen-4-one], the “cytotoxicity / cell viability” value in the data set on LNCaP cells [5] is “affected the LNCaP cells”.
Consider `CC(=O)O[C@H]1C(=O)[C@@]2(C)[C@H]([C@H](OC(=O)c3ccccc3)[C@]3(O)C[C@H](OC(=O)[C@H](O)[C@@H](NC(=O)c4ccccc4)c4ccccc4)C(C)=C1C3(C)C)[C@]1(OC(C)=O)CO[C@@H]1C[C@@H]2O` [TAX, paclitaxel, reference compound], for which, in the data set with LNCaP cells [1], the IC50 turned out to be 210 nM. Besides, in the data set with DU145 cells, the “effect on cell migration” value was “delayed cell migration”. Moreover, in the data set on LNCaP cells [3] (0.5 μM), the “antiproliferative effect of clinical standards” value was “highly effective”.
Take `CC(C)C(=O)Nc1ccc([N+](=O)[O-])c(C(F)(F)F)c1` [FLUT, flutamide]: the “antiproliferative effect of clinical standards” value in the data set on LNCaP cells [3] (10 μM) is listed as “none of the standards showed a significant antiproliferative effect”.
